Source: patent US10232041B2, “Combination of lenalidomide and polypeptide construct, and uses thereof” (Teva Pharmaceuticals Australia Pty Ltd, priority 2014, dated 2019)
“Also recorded” adds a separate entry of the source.

Legend:
[1] = test system: H929 tumor cells; assay: H929 human multiple myeloma xenograft, pomalidomide study (Example 3); assay type: in vivo, SCID mice; settings: pomalidomide 2.5 mg/kg ip qd × 21; constructs 40 μg/dose ip biwk × 4; FIG. 5
Method: Pomalidomide, like lenalidomide, is a derivative and an analog of thalidomide with increased potency against multiple myeloma and reduced toxicity.
In brief, sixty female CB.17 SCID mice were injected with 1×10^7 H929 tumor cells subcutaneously in the right flank. […] The endpoint for the study was when tumor volume reached 2000 mm^3. Cohorts were divided as follows, as summarized in Table 6: Group 1, Vehicle (PBS); Group 2, Pomalidomide alone (2.5 mg/kg); Group 3, Anti-CD38-attenuated IFNα- (40 ug/dose); Group 4, Anti-isotype-IFNα-attenuated (40 ug/dose), Group 5, Pomalidomide (2.5 mg/kg) plus anti-CD38-attenuated IFNa (40 μg/dose); and Group 6, Pomalidomide (2.5 mg/kg) plus anti-isotype-attenuated IFNα- (40 μg/dose), Pomalidomide administration started at day 1 and ended on day 21; antibody-interferon fusion construct administration started on day 1 and ended on day 28.

[2] = test system: H929 multiple myeloma tumor cells
Method: In this experiment, 8-12 week-old female CB.17 severe combined immunodeficient (SCID) mice were implanted with 1×10^7 H929 multiple myeloma tumor cells in 50% Matrigel® subcutaneously in the flank. Tumor volume was measured by calipers biweekly. When tumors reached an average size of 170-350 mm^3, mice were randomized and treatment commenced. An animal was terminated if the tumor grew to a volume of greater than 2000 mm^3 before the study was completed at day 60.
Ten animals were assigned to each of groups 1 to 10. Treatment may cause “partial regression” (PR) or complete regression (CR) of the tumor in an animal. In a PR response, the tumor volume was 50% or less of its Day 1 volume for three consecutive measurements during the course of the study, and equal to or greater than 13.5 mm^3 for one or more of these three measurements. In a CR response, the tumor volume was less than 13.5 mm^3 for three consecutive measurements during the study. Any animal with a CR response at the end of the study was additionally classified as a tumor free survivor (TFS).

[3] = test system: NCI-H929 multiple myeloma cells; assay: NCI-H929 multiple myeloma xenograft, anti-CD38 antibody-attenuated IFN alpha-2b construct + lenalidomide (Example 1); assay type: in vivo, SCID mice; settings: IFN-alpha 0.5 mg/kg; for tumor growth / tumor volume as a function of time (in words): construct 2.5 mg/kg ip biweekly (suboptimal), lenalidomide 2.5 mg/kg or 25 mg/kg daily for 21 days ip, FIG. 1, FIG. 2; for time at which tumor growth initiated and accelerated: after commencing treatment, construct 2.5 mg/kg ip biweekly, lenalidomide 2.5 mg/kg
Method: When tumors reached an average size of 200-300 mm^3, mice were pair matched into different groups and then treated with vehicle (PBS), free-non-attenuated interferon alpha (IFN-alpha) at 0.5 mg/kg, a suboptimal dose of an anti-CD38 antibody-IFN alpha-2b-145D construct (2.5 mg/kg, molar equivalent to 0.5 mg/kg IFN; ip, biweekly, which was determined by previous in vivo efficacy studies), an isotype-matched antibody-IFN alpha-2b-145D construct (isotype matched to the anti-CD38 antibody, with no anti-CD38 specificity), lenalidomide alone (2.5 mg/kg), a combination of free-non-attenuated interferon alpha and lenalidomide, a combination of lenalidomide and a suboptimal dose of the anti-CD38 antibody-IFN alpha-2b-145D construct, or a combination of the isotype control antibody-IFN alpha-2b-145D construct and lenalidomide. The amount of the anti-CD38 antibody-attenuated IFN alpha-2b construct administered was normalized to an IFN-alpha molar equivalent of the 0.5 mg/kg of free interferon administered to the animals.

[4] = Group 2: lenalidomide 25 mg/kg ip qd × 21, ten animals per group

In the case of `Nc1cccc2c1C(=O)N(C1CCC(=O)NC1=O)C2=O` (racemic) [Pomalidomide, (RS)-4-Amino-2-(2,6-dioxopiperidin-3-yl)isoindole-1,3-dione], the “tumor growth / tumor shrinkage (in words)” value [1] is reported as “did not substantially slow tumor growth”.
`Nc1cccc2c1CN(C1CCC(=O)NC1=O)C2=O` (racemic) [lenalidomide, (RS)-3-(4-Amino-1-oxo 1,3-dihydro-2H-isoindol-2-yl)piperidine-2,6-dione] was tested, and the “MTV Day 60 (Median Tumor Volume at study end)” value ([2]; Group 2: lenalidomide 25 mg/kg ip qd × 21) was 726 mm^3, the “(n) number of surviving animals used for MTV calculation, Day 60” value [2, 4] was 1 and the “CR No. of Complete Regressions” value [2, 4] was 0. The “PR No. of Partial Regressions” value [2, 4] was 1, the “TFS No. of Tumor Free Survivors” value [2, 4] was 0 and the “tumor growth (in words)” value ([2]; sub-optimal dosage of construct, lenalidomide 25 mg/kg, Table 5 and FIG. 3) was “delayed tumor growth relative to vehicle control”. For the same molecule, the “tumor growth / tumor volume as a function of time (in words)” value [3] was “delayed tumor growth relative to the vehicle control; also recorded: delayed the onset of rapid tumor growth” and the “time at which tumor growth initiated and accelerated” value [3] was “within two weeks to about a month”.
With interferon alpha the “tumor growth / tumor volume as a function of time (in words)” value [3] was “delayed tumor growth relative to the vehicle control” and the “time at which tumor growth initiated and accelerated” value [3] was “within two weeks to about a month”.
